# Test results from ChEMBL document CHEMBL4431366, “Identification of a benzo imidazole thiazole derivative as the specific irreversible inhibitor of protein tyrosine phosphatase” (Bioorg Med Chem Lett, 2016).
# Calls of active or inactive are those of the source. The calls are words filed in the database; no cut-off is given here.
# What was measured:
# [1] = target: T1, Tyrosine-protein phosphatase non-receptor type 5 (Homo sapiens, UniProt P54829); test: (§1) Inhibition of N-terminal His-tagged STEP catalytic domain (unknown origin) expressed in Escherichia coli BL21 (DE3) cells using p-nitrophenyl phosphate as substrate
# T1 sequence (P54829 whole entry): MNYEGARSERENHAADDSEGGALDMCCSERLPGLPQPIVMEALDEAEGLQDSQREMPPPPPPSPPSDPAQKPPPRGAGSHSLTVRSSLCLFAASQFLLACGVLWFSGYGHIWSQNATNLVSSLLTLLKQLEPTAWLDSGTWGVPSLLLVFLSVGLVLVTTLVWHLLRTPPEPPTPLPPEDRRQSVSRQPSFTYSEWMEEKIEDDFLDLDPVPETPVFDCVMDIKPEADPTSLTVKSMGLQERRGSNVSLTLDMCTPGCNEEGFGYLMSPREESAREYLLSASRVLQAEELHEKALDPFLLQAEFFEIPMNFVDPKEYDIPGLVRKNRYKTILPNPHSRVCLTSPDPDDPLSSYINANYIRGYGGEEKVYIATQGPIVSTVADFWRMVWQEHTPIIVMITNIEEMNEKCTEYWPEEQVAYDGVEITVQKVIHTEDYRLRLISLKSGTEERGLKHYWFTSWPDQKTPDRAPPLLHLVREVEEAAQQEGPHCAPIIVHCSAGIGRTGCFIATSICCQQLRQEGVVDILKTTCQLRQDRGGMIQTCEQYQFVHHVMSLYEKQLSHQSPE
# [2] = target: T2, Tyrosine-protein phosphatase non-receptor type 22 (Homo sapiens) (UniProt Q9Y2R2); test: Time-dependent irreversible inhibition of N-terminal His-tagged LYP (1 to 294 residues) (unknown origin) expressed in Escherichia coli BL21 (DE3) cells preincubated with enzyme followed by p-nitrophenyl phosphate substrate addition
# T2 sequence (whole entry): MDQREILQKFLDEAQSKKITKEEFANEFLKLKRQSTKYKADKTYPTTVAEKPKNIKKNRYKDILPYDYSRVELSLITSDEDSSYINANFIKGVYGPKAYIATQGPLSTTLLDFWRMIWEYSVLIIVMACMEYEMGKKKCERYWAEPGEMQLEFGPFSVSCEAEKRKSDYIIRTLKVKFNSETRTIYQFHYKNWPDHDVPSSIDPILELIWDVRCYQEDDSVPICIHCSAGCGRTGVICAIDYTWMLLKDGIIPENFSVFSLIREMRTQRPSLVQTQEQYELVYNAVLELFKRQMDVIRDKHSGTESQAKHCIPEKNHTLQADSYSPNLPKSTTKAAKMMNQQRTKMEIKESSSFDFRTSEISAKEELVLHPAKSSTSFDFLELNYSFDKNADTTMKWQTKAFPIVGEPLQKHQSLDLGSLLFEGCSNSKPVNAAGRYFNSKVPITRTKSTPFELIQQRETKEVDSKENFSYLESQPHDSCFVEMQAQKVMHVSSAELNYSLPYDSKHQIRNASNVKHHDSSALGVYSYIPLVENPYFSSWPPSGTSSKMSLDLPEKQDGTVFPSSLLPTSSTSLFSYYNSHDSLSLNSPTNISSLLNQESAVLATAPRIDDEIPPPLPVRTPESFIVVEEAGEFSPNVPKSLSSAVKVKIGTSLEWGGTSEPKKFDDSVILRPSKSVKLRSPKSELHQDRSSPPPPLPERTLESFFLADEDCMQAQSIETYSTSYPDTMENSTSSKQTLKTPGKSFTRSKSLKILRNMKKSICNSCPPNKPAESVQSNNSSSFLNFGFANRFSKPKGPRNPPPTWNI
# [3] = target: T3, Tyrosine-protein phosphatase non-receptor type 9 (Homo sapiens) (UniProt P43378); test: Time-dependent irreversible inhibition of N-terminal His-tagged MEG2 (277 to 583 residues) (unknown origin) expressed in Escherichia coli BL21 (DE3) cells preincubated with enzyme followed by p-nitrophenyl phosphate substrate addition
# T3 sequence (whole entry): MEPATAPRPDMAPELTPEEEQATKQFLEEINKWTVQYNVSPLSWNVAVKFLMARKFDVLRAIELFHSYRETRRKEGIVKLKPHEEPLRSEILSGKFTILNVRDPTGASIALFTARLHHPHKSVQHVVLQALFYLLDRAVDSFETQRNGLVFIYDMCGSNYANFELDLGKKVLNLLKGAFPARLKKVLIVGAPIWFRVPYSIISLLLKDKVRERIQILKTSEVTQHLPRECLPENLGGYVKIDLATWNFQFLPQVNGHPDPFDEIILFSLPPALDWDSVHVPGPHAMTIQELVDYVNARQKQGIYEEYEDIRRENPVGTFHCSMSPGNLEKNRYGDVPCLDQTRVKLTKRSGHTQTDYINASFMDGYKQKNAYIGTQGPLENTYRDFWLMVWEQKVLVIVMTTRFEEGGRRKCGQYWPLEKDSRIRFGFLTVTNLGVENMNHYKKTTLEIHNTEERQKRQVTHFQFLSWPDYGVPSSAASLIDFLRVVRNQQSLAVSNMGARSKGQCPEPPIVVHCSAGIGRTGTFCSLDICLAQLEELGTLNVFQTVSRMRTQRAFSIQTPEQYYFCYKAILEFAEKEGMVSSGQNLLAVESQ
# [4] = target: T4, Tyrosine-protein phosphatase non-receptor type 1 (Homo sapiens) (UniProt P18031); test: Time-dependent irreversible inhibition of N-terminal His-tagged PTP1B (unknown origin) expressed in Escherichia coli BL21 (DE3) cells preincubated with enzyme followed by p-nitrophenyl phosphate substrate addition
# T4 sequence (whole entry): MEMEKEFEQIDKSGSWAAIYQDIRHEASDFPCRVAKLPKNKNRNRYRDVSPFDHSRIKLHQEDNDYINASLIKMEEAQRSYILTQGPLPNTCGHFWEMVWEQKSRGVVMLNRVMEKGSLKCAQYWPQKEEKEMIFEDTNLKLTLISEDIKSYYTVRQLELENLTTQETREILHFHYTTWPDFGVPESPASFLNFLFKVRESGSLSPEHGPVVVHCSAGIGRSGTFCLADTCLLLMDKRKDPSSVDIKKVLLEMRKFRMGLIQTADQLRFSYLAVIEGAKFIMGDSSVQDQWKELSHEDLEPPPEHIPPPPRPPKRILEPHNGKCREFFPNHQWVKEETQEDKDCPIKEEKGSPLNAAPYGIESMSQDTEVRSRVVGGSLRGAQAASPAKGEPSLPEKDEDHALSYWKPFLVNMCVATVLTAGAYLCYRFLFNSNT
# [5] = target: T5, Tyrosine-protein phosphatase non-receptor type 5 (Homo sapiens) (UniProt P54829)
# T5 sequence (whole entry): T1 sequence (P54829 whole entry)
# Description: Time-dependent irreversible inhibition of N-terminal His-tagged STEP catalytic domain (unknown origin) expressed in Escherichia coli BL21 (DE3) cells at 100 uM preincubated with enzyme followed by p-nitrophenyl phosphate substrate addition
# [6] = target: T6, Protein phosphatase 1G (Homo sapiens) (UniProt O15355); test: Time-dependent irreversible inhibition of N-terminal His-tagged PPM1G (unknown origin) expressed in Escherichia coli BL21 (DE3) cells at 80 uM preincubated with enzyme followed by p-nitrophenyl phosphate substrate addition
# T6 sequence (whole entry): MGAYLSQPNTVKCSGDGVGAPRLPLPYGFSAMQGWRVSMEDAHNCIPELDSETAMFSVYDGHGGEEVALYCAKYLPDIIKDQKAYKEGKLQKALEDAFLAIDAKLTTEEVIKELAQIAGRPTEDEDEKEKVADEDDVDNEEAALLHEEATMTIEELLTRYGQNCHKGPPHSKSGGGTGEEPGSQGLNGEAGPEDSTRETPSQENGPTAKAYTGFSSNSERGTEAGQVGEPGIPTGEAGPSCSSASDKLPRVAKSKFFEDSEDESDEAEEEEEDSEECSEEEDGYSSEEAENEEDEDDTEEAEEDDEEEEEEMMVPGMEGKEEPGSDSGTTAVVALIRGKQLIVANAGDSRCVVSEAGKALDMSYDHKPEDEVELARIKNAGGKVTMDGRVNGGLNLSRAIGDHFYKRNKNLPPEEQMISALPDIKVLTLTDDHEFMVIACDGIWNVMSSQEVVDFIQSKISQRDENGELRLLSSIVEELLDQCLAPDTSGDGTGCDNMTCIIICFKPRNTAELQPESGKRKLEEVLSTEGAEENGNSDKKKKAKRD
# [7] = target: T5, Tyrosine-protein phosphatase non-receptor type 5 (Homo sapiens); test: (§2) Time-dependent irreversible inhibition of N-terminal His-tagged STEP catalytic domain (unknown origin) expressed in Escherichia coli BL21 (DE3) cells preincubated with enzyme followed by p-nitrophenyl phosphate substrate addition
# [8] = target: T1, Tyrosine-protein phosphatase non-receptor type 5; test: as §2
# [9] = target: T7, Protein phosphatase 1B (Homo sapiens) (UniProt O75688); test: Time-dependent irreversible inhibition of N-terminal His-tagged PPM1B (unknown origin) expressed in Escherichia coli BL21 (DE3) cells at 80 uM preincubated with enzyme followed by p-nitrophenyl phosphate substrate addition
# T7 sequence (whole entry): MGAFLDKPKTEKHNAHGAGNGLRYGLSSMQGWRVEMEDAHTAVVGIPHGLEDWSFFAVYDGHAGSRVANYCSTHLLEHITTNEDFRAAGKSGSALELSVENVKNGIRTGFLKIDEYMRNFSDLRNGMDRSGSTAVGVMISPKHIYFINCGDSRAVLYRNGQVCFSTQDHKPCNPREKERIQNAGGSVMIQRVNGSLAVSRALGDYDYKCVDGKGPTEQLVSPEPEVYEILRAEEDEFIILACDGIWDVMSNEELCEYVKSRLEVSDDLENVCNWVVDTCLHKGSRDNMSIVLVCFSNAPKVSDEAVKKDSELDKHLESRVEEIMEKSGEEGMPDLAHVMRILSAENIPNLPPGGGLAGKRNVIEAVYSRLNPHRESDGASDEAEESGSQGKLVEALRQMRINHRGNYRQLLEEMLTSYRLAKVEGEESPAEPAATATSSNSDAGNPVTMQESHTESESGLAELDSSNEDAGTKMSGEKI
# [10] = target: T5, Tyrosine-protein phosphatase non-receptor type 5 (Homo sapiens); test: as §1
# Bacteria = test: Time-dependent irreversible inhibition of N-terminal His-tagged bacterial YOPH expressed in Escherichia coli BL21 (DE3) cells preincubated with enzyme followed by p-nitrophenyl phosphate substrate addition
# [11] = target: T8, Protein phosphatase 1A (Homo sapiens) (UniProt P35813); test: Time-dependent irreversible inhibition of N-terminal His-tagged PPM1A (unknown origin) expressed in Escherichia coli BL21 (DE3) cells at 80 uM preincubated with enzyme followed by p-nitrophenyl phosphate substrate addition
# T8 sequence (whole entry): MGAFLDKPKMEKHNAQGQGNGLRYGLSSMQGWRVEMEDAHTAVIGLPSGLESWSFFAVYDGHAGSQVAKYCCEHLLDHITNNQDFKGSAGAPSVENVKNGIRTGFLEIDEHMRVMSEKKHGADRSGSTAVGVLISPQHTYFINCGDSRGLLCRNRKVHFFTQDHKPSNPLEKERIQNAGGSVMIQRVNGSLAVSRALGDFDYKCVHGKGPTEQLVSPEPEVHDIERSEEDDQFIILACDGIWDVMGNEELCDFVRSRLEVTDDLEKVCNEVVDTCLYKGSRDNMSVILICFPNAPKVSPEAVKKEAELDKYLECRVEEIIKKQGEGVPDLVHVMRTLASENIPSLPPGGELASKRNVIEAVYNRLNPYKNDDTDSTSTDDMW
structure (smiles),measurement,setting,value
Cc1ccc([N+](=O)[O-])cc1-c1ccc(/C=c2\sc3nc4ccccc4n3c2=O)o1,IC50,[1],> 300 µM
Cc1cc(/C=c2/sc3nc4ccccc4n3c2=O)c(C)n1-c1cccc(C(=O)O)c1,K,[2],0.0272 min⁻¹
same,K,[3],0.0463 min⁻¹
same,K,[4],0.0859 min⁻¹
same,TDI,[5],Active
same,TDI,[6],Active
same,K,[7],0.0439 min⁻¹
same,Kinact,[7],0.068 s⁻¹
same,Ki,[8],21.6 µM
same,TDI,[9],Active
same,inhibition,[10],Dose-dependent effect
same,IC50,[1],8.3 µM
same,K,Bacteria,0.0486 min⁻¹
same,TDI,[11],Active
O=C(O)c1ccc(N2C(=O)c3ccc(Br)cc3C2=O)cc1O,IC50,[1],273 µM
Cc1cc2cc(OCC(=O)O)ccc2n1-c1ccc(Cl)cc1,IC50,[1],> 300 µM
O=C(CSc1nc2cc(Cl)ccc2o1)Nc1ccc(C(=O)O)cc1,IC50,[1],> 300 µM
O=C(O)c1cccc(/C=c2/sc3nc4ccccc4n3c2=O)c1,IC50,[1],> 300 µM
COc1cc(/C=c2/sc3nc4ccccc4n3c2=O)cc(Cl)c1OCc1cccc(C(=O)O)c1,IC50,[1],> 300 µM
O=C(O)c1cc2ccoc2cc(C(=O)O)c1=O,IC50,[1],> 300 µM
